Earlier results as cited in EP1180016B1, “METHODS AND COMPOSITIONS FOR NON-VIRAL GENE THERAPY FOR TREATMENT OF HYPERPROLIFERATIVE DISEASES” (Introgen Therapeutics, Inc., priority 1999, dated 2000).
Structures can show the parent of a compound that is named as a salt. *1 amine or outer side, *2 acyl side, *3 side chain or, on linkers, in order; H or OH if unused. Where a SMILES comes first, the peptide text is derived from it. Bridges are numbered along the chain shown (N, C = ends). Roman numbers before positions name the chains, in order. [ ]: non-standard residue; d: D form. Actinocin(9to1) = Cc1c2oc3c(C)ccc(C(=O)[*:1])c3nc-2c(C(=O)[*:2])c(N)c1=O; NMeV = CN[C@H](C(=O)O)C(C)C; Sar = CNCC(=O)O

Tests used:
[1] = tested on: chronic myelogenous leukemia; conditions: previously untreated chronic myelogenous leukemia
[2] = physiological pH

Cc1c2oc3c(C)ccc(C(=O)N[C@@H]4C(=O)N[C@H](C(C)C)C(=O)N5CCC[C@H]5C(=O)N(C)CC(=O)N(C)[C@@H](C(C)C)C(=O)O[C@@H]4C)c3nc-2c(C(=O)N[C@@H]2C(=O)N[C@H](C(C)C)C(=O)N3CCC[C@H]3C(=O)N(C)CC(=O)N(C)[C@@H](C(C)C)C(=O)O[C@@H]2C)c(N)c1=O [Actinomycin D] (I: T[dV]P[Sar][NMeV] / II: T[dV]P[Sar][NMeV]; ester I:1-I:C, II:1-II:C; linker I:N-II:N via Actinocin(9to1))
dose excreted intact into the bile (in vivo): Half

CS(=O)(=O)OCCCCOS(C)(=O)=O [Busulfan, 1,4-butanediol dimethanesulfonate]
adults obtaining hematologic remission with regression or stabilization of organomegaly [1]: Approximately 90%

O=C(O)CCCc1ccc(N(CCCl)CCCl)cc1 [Chlorambucil, 4-[bis(2-chlorethyl)amino] benzenebutanoic acid]
terminal half-life of the parent drug (single oral doses of 0.6-[…]): 1.5 h

COc1cccc2c1C(=O)c1c(O)c3c(c(O)c1C2=O)C[C@@](O)(C(C)=O)C[C@@H]3O[C@H]1C[C@H](N)[C@H](O)[C@H](C)O1 [Daunorubicin, 5,12-Naphthacenedione, (8S-cis)-8-acetyl-10-[(3-amino-2,3,6-trideoxy-a-L-lyxo-hexanopyranosyl)oxy]-7,8,9,10-tetrahydro-6,8,11-trihydroxy-10-methoxy-, hydrochloride]
half-life of distribution (intravenous): 0.75 h

O=NN(CCCl)C(=O)NC1CCCCC1 [Lomustine, 1-(2-chloro-ethyl)-3-cyclohexyl-1 nitrosourea]
radioactivity excreted in the form of degradation products within 24 hours (oral radioactive lomustine, 30 mg/m^2 to 100 mg/m^2): about half | ionization [2]: relatively unionized
